Biological target: T1, human TLR7 (Homo sapiens, UniProt Q9NYK1)
T1 sequence (Q9NYK1 27-1049): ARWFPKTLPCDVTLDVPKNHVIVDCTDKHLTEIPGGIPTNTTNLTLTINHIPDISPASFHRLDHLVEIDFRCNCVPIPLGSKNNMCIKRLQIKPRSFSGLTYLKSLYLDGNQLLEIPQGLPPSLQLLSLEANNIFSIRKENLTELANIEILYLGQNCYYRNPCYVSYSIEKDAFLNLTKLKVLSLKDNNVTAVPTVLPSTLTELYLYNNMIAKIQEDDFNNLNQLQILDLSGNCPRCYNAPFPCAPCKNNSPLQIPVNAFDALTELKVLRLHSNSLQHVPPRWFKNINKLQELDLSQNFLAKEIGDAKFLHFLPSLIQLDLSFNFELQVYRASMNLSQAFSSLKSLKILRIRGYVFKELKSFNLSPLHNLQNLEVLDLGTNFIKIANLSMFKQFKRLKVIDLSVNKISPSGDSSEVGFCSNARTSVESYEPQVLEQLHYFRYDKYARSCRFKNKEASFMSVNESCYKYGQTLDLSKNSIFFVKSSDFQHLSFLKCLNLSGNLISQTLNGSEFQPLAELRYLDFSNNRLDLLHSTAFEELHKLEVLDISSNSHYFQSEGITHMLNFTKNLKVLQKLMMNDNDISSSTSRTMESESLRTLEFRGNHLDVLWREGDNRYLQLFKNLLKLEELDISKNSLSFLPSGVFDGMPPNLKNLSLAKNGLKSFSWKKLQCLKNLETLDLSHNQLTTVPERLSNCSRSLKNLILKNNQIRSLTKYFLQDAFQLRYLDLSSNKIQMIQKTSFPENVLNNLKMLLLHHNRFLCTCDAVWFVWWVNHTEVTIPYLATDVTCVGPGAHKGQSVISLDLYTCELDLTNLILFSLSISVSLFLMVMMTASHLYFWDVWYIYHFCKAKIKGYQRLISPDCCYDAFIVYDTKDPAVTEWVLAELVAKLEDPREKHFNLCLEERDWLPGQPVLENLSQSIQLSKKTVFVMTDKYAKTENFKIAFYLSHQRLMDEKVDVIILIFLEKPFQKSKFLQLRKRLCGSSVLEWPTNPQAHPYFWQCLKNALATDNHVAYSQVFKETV
Assay: HEK293-Blue-hTLR-7 cells assay
Format: cell-based
Conditions: HEK293-Blue-hTLR7 cells, SEAP reporter, R848 stimulation, 20 hrs
From the text: HEK293-Blue-hTLR-7 Cells Assay:
A stable HEK293-Blue-hTLR-7 cell line was purchased from InvivoGen (Cat. #: hkb-htlr7, San Diego, Calif., USA). These cells were originally designed for studying the stimulation of human TLR7 by monitoring the activation of NF-κB. A SEAP (secreted embryonic alkaline phosphatase) reporter gene was placed under the control of the IFN-β minimal promoter fused to five NF-κB and AP-1-binding sites. The SEAP was induced by activating NF-κB and AP-1 via stimulating HEK-Blue hTLR7 cells with TLR7 ligands. Therefore the reporter expression was declined by TLR7 antagonist under the stimulation of a ligand, such as R848 (Resiquimod), for incubation of 20 hrs. The cell culture supernatant SEAP reporter activity was determined using QUANTI-Blue™ kit (Cat. #: rep-qb1, Invivogen, San Diego, Ca, USA) at a wavelength of 640 nm, a detection medium that turns purple or blue in the presence of alkaline phosphatase.
HEK293-Blue-hTLR7 cells were incubated at a density of 250,000˜450,000 cells/mL in a volume of 170 μL in a 96-well plate in Dulbecco's Modified Eagle's medium (DMEM) containing 4.5 g/L glucose, 50 U/mL penicillin, […], […], 2 mM L-glutamine, 10% (v/v) heat-inactivated fetal bovine serum with addition of 20 sL test compound in a serial dilution in the presence of final DMSO at 1% and 10 μL of 20 uM R848 in above DMEM, perform incubation under 37° C. in a CO2 incubator for 20 hrs. Then 20 μL of the supernatant from each well was incubated with 180 sL Quanti-blue substrate solution at 37° C. for 2 hrs and the absorbance was read at 620-655 nm using a spectrophotometer. The signalling pathway that TLR7 activation leads to downstream NF-κB activation has been widely accepted, and therefore similar reporter assay was modified for evaluating TLR7 antagonist.

Structure (SMILES)	IC50 [nM]
CN1CCC(NC(=O)[C@@H]2CN(c3ccc(C#N)c4ncccc34)C[C@H]2C2CC2)CC1 (relative stereo) [Example 14, Trans-1-(8-cyano-5-quinolyl)-4-cyclopropyl-N-(1-methyl-4-piperidyl)pyrrolidine-3-carboxamide]	20
CN1CCC(NC(=O)[C@@H]2CN(c3ccc(C#N)c4ncccc34)C[C@H]2C(F)(F)F)CC1 (relative stereo) [Example 17, Trans-1-(8-cyano-5-quinolyl)-N-(1-methyl-4-piperidyl)-4-(trifluoromethyl)pyrrolidine-3-carboxamide]	22
C[C@@H]1CN(c2ccc(C#N)c3ncccc23)C[C@H]1C(=O)NC1CCN(C)CC1 (relative stereo) [Example 28]	39
CC[C@@H]1CN(c2ccc(C#N)c3ncccc23)C[C@H]1C(=O)NC1CCN(C)CC1 (relative stereo) [Example 29, Trans-1-(8-cyano-5-quinolyl)-4-ethyl-N-(1-methyl-4-piperidyl)pyrrolidine-3-carboxamide]	40
C[C@@H]1CN(c2ccc(C#N)c3ncccc23)C[C@H]1C(=O)N1CCC2(CCNCC2)CC1 (relative stereo) [Example 32, Trans-5-[3-(3,9-diazaspiro[5.5]undecane-3-carbonyl)-4-methyl-pyrrolidin-1-yl]quinoline-8-carbonitrile]	44
CC(C)[C@@H]1CN(c2ccc(C#N)c3ncccc23)C[C@H]1C(=O)NC1CCN(C)CC1 (relative stereo) [Example 37, Trans-1-(8-cyano-5-quinolyl)-4-isopropyl-N-(1-methyl-4-piperidyl)pyrrolidine-3-carboxamide]	59
CN1CCC(NC(=O)[C@@H]2CN(c3ccc(C#N)c4ncccc34)C[C@H]2C(F)F)CC1 (relative stereo) [Example 40, Trans-1-(8-cyano-5-quinolyl)-4-(difluoromethyl)-N-(1-methyl-4-piperidyl)pyrrolidine-3-carboxamide]	79
N[C@@H]1CCC[C@H](NC(=O)C2CN(c3ccc(C(F)(F)F)c4nccnc34)CC23CC3)C1 (relative stereo) [Example 43, Cis-N-(3-aminocyclohexyl)-5-[8-(trifluoromethyl)quinoxalin-5-yl]-5-azaspiro[2.4]heptane-7-carboxamide]	81
CN1CCC(NC(=O)[C@@H]2CN(c3ccc(Cl)c4ncccc34)C[C@H]2C(F)(F)F)CC1 (relative stereo) [Example 46, Trans-1-(8-chloro-5-quinolyl)-N-(1-methyl-4-piperidyl)-4-(trifluoromethyl)pyrrolidine-3-carboxamide]	108
C[C@@H]1CN(c2ccc(C#N)c3ncccc23)C[C@H]1C(=O)N1CCC2(CCNC2)C1 (relative stereo) [Example 53, Trans-5-[3-(2,7-diazaspiro[4.4]nonane-2-carbonyl)-4-methyl-pyrrolidin-1-yl]quinoline-8-carbonitrile]	226
CN1CCC(NC(=O)C2CN(c3ccc(C#N)c4nccnc34)CC23CC3)CC1 (single isomer, unassigned) [Example 7A, 5-(8-Cyanoquinoxalin-5-yl)-N-(1-methyl-4-piperidyl)-5-azaspiro[2.4]heptane-7-carboxamide]	4
CN1CCC(NC(=O)C2CN(c3ccc(C#N)c4nccnc34)CC23CC3)CC1 (single isomer, unassigned) [Example 7B, 5-(8-Cyanoquinoxalin-5-yl)-N-(1-methyl-4-piperidyl)-5-azaspiro[2.4]heptane-7-carboxamide]	6
N#Cc1ccc(N2CC(C(=O)NC3CCCNCC3)C(C(F)(F)F)C2)c2cccnc12 (single isomer, unassigned) [Example 30A, N-(azepan-4-yl)-1-(8-cyano-5-quinolyl)-4-(trifluoromethyl)pyrrolidine-3-carboxamide]	41
N#Cc1ccc(N2CC(C(=O)NC3CCCNCC3)C(C(F)(F)F)C2)c2cccnc12 (single isomer, unassigned) [Example 30B, N-(azepan-4-yl)-1-(8-cyano-5-quinolyl)-4-(trifluoromethyl)pyrrolidine-3-carboxamide]	50
CN1CCC(NC(=O)C2CN(c3ccc(C#N)c4ncccc34)CC23CC3)CC1 (single isomer, unassigned) [Example 41A, 5-(8-Cyano-5-quinolyl)-N-(1-methyl-4-piperidyl)-5-azaspiro[2.4]heptane-7-carboxamide]	79
C[C@@H]1CN(c2ccc(C#N)c3ncccc23)C[C@H]1C(=O)NC1CCCNCC1 (single isomer, unassigned) [Example 52A, Trans-N-(azepan-4-yl)-1-(8-cyano-5-quinolyl)-4-methyl-pyrrolidine-3-carboxamide]	203
C[C@@H]1CN(c2ccc(C#N)c3ncccc23)C[C@H]1C(=O)NC1CCCNCC1 (single isomer, unassigned) [Example 52B, Trans-N-(azepan-4-yl)-1-(8-cyano-5-quinolyl)-4-methyl-pyrrolidine-3-carboxamide]	219
N#Cc1ccc(N2CC(C(=O)NC[C@H]3CNCCO3)C3(CC3)C2)c2nccnc12 (single isomer, unassigned) [Example 70A]	19
N#Cc1ccc(N2CC(C(=O)NC[C@H]3CNCCO3)C3(CC3)C2)c2nccnc12 (single isomer, unassigned) [Example 70B]	233
N#Cc1ccc(N2CC(C(=O)NC[C@@H]3CNCCO3)C3(CC3)C2)c2nccnc12 (single isomer, unassigned) [Example 71A]	21
N#Cc1ccc(N2CC(C(=O)NC[C@@H]3CNCCO3)C3(CC3)C2)c2nccnc12 (single isomer, unassigned) [Example 71B]	202
CN1CCC(NC(=O)[C@H]2CN(c3ccc(C#N)c4nccnc34)C[C@@H]2C(F)(F)F)CC1 [Example 1, (3R,4R)-1-(8-cyanoquinoxalin-5-yl)-N-(1-methyl-4-piperidyl)-4-(trifluoromethyl) pyrrolidine-3-carboxamide]	3
CN1CCC(NC(=O)[C@H]2CN(c3ccc(C(F)(F)F)c4nccnc34)C[C@@H]2C(F)(F)F)CC1 [Example 2, (3R,4R)—N-(1-methyl-4-piperidyl)-4-(trifluoromethyl)-1-[8-(trifluoromethyl)quinoxalin-5-yl]pyrrolidine-3-carboxamide]	4
C[C@H]1CN(c2ccc(C#N)c3nccnc23)C[C@@H]1C(=O)NC1CCN(C)CC1 [Example 3, (3R,4R)-1-(8-cyanoquinoxalin-5-yl)-4-methyl-N-(1-methyl-4-piperidyl)pyrrolidine-3-carboxamide]	4
CN1CCC(NC(=O)[C@H]2CN(c3ccc(C#N)c4ncccc34)C[C@@H]2C(F)(F)F)CC1 [Example 4, (3R,4R)-1-(8-cyano-5-quinolyl)-N-(1-methyl-4-piperidyl)-4-(trifluoromethyl)pyrrolidine-3-carboxamide]	9
C[C@H]1CN(c2ccc(C(F)(F)F)c3nccnc23)C[C@@H]1C(=O)NC1CCN(C)CC1 [Example 5, (3R,4R)-4-methyl-N-(1-methyl-4-piperidyl)-1-[8-(trifluoromethyl)quinoxalin-5-yl]pyrrolidine-3-carboxamide]	8

— patent US20210323977A1, “PYRROLIDINYL AMIDE COMPOUNDS FOR THE TREATMENT OF AUTOIMMUNE DISEASE” (Hoffmann-La Roche Inc., priority 2018, published 2021)
